The values below come from patent US12018021B2 (UCB Biopharma SRL, priority 2018, dated 2024).

In the assay the target is IgE-Tb / FcεRIα-Y131A-AF488 (Homo sapiens, UniProt P01854). Description: IgE-Tb / FcεRIα-Y131A-AF488 FRET assay (protocol for examples 1 to 233). It counts as binding. As to conditions: examples 1 to 233: 5 nM IgE-Tb, 25 nM FcεRIα-Y131A-AF488, incubated 2 hours at room temperature; read-out: Y131A FRET IC50 range. In a few lines: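 Compounds (top final concentration usually 10 μM, 3-fold, 10 points, 2% DMSO) incubated 2 h at room temperature with IgE-Tb (5 nM) and FcεRIα-Y131A-AF488 (25 nM). Background from 200 nM unlabelled receptor subtracted; FRET ratio 520/495 nm after 330 nm excitation gave percent inhibition, fitted four-parameter for IC50.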

The structures appear in SMILES notation. pIC50: −log10 of the molar value. A value given as a limit tells only on which side of the number the result lay.

Sequence of IgE-Tb / FcεRIα-Y131A-AF488 (P01854 1-427 limits assumed, stated change not applied): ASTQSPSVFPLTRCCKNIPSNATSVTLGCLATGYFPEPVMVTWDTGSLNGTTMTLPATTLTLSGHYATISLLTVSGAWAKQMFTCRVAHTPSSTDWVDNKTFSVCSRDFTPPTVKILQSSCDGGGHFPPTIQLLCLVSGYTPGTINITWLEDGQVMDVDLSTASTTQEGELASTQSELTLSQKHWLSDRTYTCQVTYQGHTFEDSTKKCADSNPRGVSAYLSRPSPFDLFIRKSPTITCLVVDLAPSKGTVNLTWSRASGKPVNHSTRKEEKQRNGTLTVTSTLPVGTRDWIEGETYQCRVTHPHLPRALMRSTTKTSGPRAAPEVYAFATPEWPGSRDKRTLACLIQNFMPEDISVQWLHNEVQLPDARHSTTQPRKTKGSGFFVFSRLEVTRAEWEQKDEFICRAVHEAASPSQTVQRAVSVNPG

On to `Cc1ccc(NC(=N[N+](=O)[O-])NC2CCc3sc(NC(=O)C4CC4)c(C(=O)NCC4CC4)c3C2)cc1` (stereo not shown) [Example 126, 2-(cyclopropanecarbonylamino)-N-(cyclopropylmethyl)-5-[[N′-nitro-N-(p-tolyl)carbamimidoyl]amino]-4,5,6,7-tetrahydrobenzothiophene-3-carboxamide], for which the pIC50 is > 6.00.
With `O=C(NCC1CC1)c1c(NC(=O)C2CC2)sc2c1C[C@@H](n1ccnc1Nc1cccnc1)CC2` [Example 127, (5S)-2-(Cyclopropanecarbonylamino)-N-(cyclopropylmethyl)-5-[2-(3-pyridylamino)imidazol-1-yl]-4,5,6,7-tetrahydrobenzothiophene-3-carboxamide] the figure was > 6.00.
With `O=C(NCC1CC1)c1c(NC(=O)C2CC2)sc2c1C[C@@H](n1cnnc1NCC1CC1)CC2` [Example 130, (5S)-2-(Cyclopropanecarbonylamino)-N-(cyclopropylmethyl)-5-[3-(cyclopropylmethylamino)-1,2,4-triazol-4-yl]-4,5,6,7-tetrahydrobenzothiophene-3-carboxamide] the figure was > 6.00; with `Cc1cc(NC(=S)N[C@H]2CCc3sc(NC(=O)C4CC4)c(C(=O)NCC4CC4)c3C2)n(C)n1` [Example 131, (5S)-2-(Cyclopropanecarbonylamino)-N-(cyclopropylmethyl)-5-[(2,5-dimethylpyrazol-3-yl)carbamothioylamino]-4,5,6,7-tetrahydrobenzothiophene-3-carboxamide], > 6.00; with `O=C(NCC1CC1)c1c(NC(=O)C2CC2)sc2c1C[C@@H](n1cnnc1Nc1cncnc1)CC2` [Example 132, (5S)-2-(Cyclopropanecarbonylamino)-N-(cyclopropylmethyl)-5-[3-(pyrimidin-5-ylamino)-1,2,4-triazol-4-yl]-4,5,6,7-tetrahydrobenzothiophene-3-carboxamide], > 6.00.
Turning to `O=C(NCC1CC1)c1c(NC(=O)C2CC2)sc2c1C[C@@H](n1ccnc1NCC1CC1)CC2` [Example 133, (5S)-2-(Cyclopropanecarbonylamino)-N-(cyclopropylmethyl)-5-[2-(cyclopropylmethylamino)imidazol-1-yl]-4,5,6,7-tetrahydrobenzothiophene-3-carboxamide], the pIC50 is > 6.00.
With `CCNC1=NS(=O)(=O)N=C1NC1CCc2sc(NC(=O)C3CC3)c(C(=O)NCC3CC3)c2C1` (stereo not shown) [Example 134, 2-(Cyclopropanecarbonylamino)-N-(cyclopropylmethyl)-5-[[4-(ethylamino)-1,1-dioxo-1,2,5-thiadiazol-3-yl]amino]-4,5,6,7-tetrahydrobenzothiophene-3-carboxamide] the figure was > 6.00; with `Cc1ccc(NC(=C[N+](=O)[O-])NC2CCc3sc(NC(=O)C4CC4)c(C(=O)NCC4CC4)c3C2)cc1` (stereo not shown) [Example 135, 2-(cyclopropanecarbonylamino)-N-(cyclopropylmethyl)-5-[[1-(4-methylanilino)-2-nitro-vinyl]amino]-4,5,6,7-tetrahydrobenzothiophene-3-carboxamide], > 6.00.
Consider `CCNC(=NC#N)N(C)[C@H]1CCc2sc(NC(=O)C3CC3)c(C(=O)NCC3CC3)c2C1` [Example 136, (5S)-5-[(N′-cyano-N-ethyl-carbamimidoyl)-methyl-amino]-2-(cyclopropanecarbonylamino)-N-(cyclopropylmethyl)-4,5,6,7-tetrahydrobenzothiophene-3-carboxamide], for which the pIC50 was > 6.00.
Take `Cc1ccc(Nc2c(NC3CCc4sc(NC(=O)C5CC5)c(C(=O)NCC5CC5)c4C3)c(=O)c2=O)cc1` (stereo not shown) [Example 137, 2-(Cyclopropanecarbonylamino)-N-(cyclopropylmethyl)-5-[[2-(4-methylanilino)-3,4-dioxo-cyclobuten-1-yl]amino]-4,5,6,7-tetrahydrobenzothiophene-3-carboxamide]: the pIC50 was > 6.00.
